Reference: PMC9866218, “Characterization and Chemical Synthesis of Cm39 (α-KTx 4.8): A Scorpion Toxin That Inhibits Voltage-Gated K^+ Channel KV1.2 and Small- and Intermediate-Conductance Ca^2+-Activated K^+ Channels KCa2.2 and KCa3.1” (Toxins, 2023)

Target: T1, hKV1.2 (Homo sapiens, UniProt P16389)
T1 construct: GFP (vector pCMV6-AC-GFP); host or cells: CHO cells, transient transfection
Test: Whole-cell patch-clamp, block of KV1.2 current
Assay type: cell-based
Description: We, therefore, aimed at testing the pharmacological activity of sCm39 on a battery of various potassium and sodium ion channels. Among the tested channels were six members of human voltage-gated K^+ (hKV) channels from Shaker family, hKV1.1-hKV1.6 (Figure 3A–F) and three members of Ca^2+-activated potassium channel; hKCa2.2 (SK2, Figure 3I), the small-conductance Ca^2+-activated channel; hKCa3.1 (IKCa1, SK4. Figure 3J), the intermediate-conductance Ca^2+-activated channel expressed in T lymphocytes; and mKCa1.1 (BK, Slo1, MaxiK, Figure 3H), the large-conductance voltage- and Ca^2+-activated channel of mice. In addition, we also screened the effect of Cm39 on hKV11.1 (hERG1, Figure 3G), a voltage-gated cardiac K^+ channel, and two human voltage-gated sodium (hNaV) channels, hNaV1.4 (Figure 3K) and hNaV1.5 (Figure 3L), expressed in skeletal and cardiac muscles, respectively. These ion channels were heterologously expressed in the CHO or HEK cell lines except for KV1.3. Human peripheral T lymphocytes. They were stimulated with Phytohemagglutinin A (PHA) to increase the KV1.3 channel expression, and Ca^2+-free intracellular solution was used to avoid KCa3.1 channel activation. Appropriate depolarization protocols were used to record ionic currents in voltage-clamped cells (see Figure 3 insets and Material and Methods for details). Freshly dissolved sCm39 in extracellular solution was applied at 1 µM concentration on the cell using a custom-built micro-perfusion system at ~200 µL/min flow rate.
For comprehensive characterization of Cm39 activity on KV1.2, we determined the concentration–response of current inhibition by Cm39, the kinetic parameters of its binding and assessed the effect on voltage dependence of steady-state activation. The whole-cell KV1.2 currents were recorded in CHO cells using depolarization pulses to +50mV from −120mV holding potential (Vh) every 15 s. Since the activation kinetics of KV1.2 are highly variable, the duration of pulses was set on a cell-by-cell basis between 15–300 ms to allocate sufficient time for reaching maximum currents at the test potentials. […] The remaining current fractions (RCF = I/I0, where I0 is the peak current in the absence of the toxin, and I is the peak current at equilibrium block in the presence of sCm39 at a given concentration) were calculated and plotted as a function of toxin concentration.
Single-exponential decay functions were fitted to the normalized peak currents in the presence of each sCm39 concentration (Figure 4C, data points in red shades) to determine the time constant for the onset of block (τon, wash-in or association time constant). The dissociation time constant for the relief from block (τoff, wash-out time constant) was obtained by fitting a single-exponential rising function to the normalized peak currents in the wash-out procedure (Figure 4C, data point in black empty circles). Assuming a simple bimolecular interaction between the toxin and the channel, time constants for the onset and recovery from the block can be stated as follows:(1) τon=1/kon×[toxin]+koff , τoff=1/koff where kon represents the second-order association rate constant, koff indicates the first-order dissociation rate constant and [toxin] is the sCm39 concentration. […] The second-order rate constant of association (kon) was determined by fitting the 1/τon data points using linear regression with koff as the y-intercept.

T1 sequence (P16389 whole entry): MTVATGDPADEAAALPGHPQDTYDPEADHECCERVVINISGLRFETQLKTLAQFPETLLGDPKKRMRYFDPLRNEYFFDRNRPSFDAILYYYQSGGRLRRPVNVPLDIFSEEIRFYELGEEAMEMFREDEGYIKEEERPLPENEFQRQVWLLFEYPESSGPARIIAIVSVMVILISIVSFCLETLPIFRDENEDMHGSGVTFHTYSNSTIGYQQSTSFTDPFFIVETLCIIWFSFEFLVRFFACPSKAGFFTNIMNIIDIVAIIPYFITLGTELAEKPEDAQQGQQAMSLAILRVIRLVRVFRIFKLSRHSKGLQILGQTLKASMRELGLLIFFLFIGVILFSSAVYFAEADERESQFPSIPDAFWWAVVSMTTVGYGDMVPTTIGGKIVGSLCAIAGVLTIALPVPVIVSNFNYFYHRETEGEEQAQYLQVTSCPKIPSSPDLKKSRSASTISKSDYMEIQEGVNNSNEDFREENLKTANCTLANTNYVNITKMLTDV

CC[C@H](C)[C@@H]1NC(=O)[C@H](C)NC(=O)[C@H](C)NC(=O)[C@H](CCCCN)NC(=O)[C@@H]2CSSC[C@@H](C(=O)N[C@@H](Cc3ccc(O)cc3)C(=O)N[C@@H](Cc3ccc(O)cc3)C(=O)O)NC(=O)[C@H](CCCCN)NC(=O)[C@@H]3CSSC[C@H](NC(=O)[C@H](CCC(=O)O)NC(=O)[C@H](CO)NC(=O)[C@H](CO)NC(=O)[C@H](CO)NC(=O)[C@H](CCCCN)NC(=O)[C@@H](NC(=O)[C@H](CCCCN)NC(=O)[C@H](Cc4c[nH]cn4)NC(=O)[C@H](CC(N)=O)NC(=O)[C@@H](NC(=O)[C@H](Cc4ccccc4)NC(=O)[C@@H](N)[C@@H](C)O)[C@@H](C)CC)CSSC[C@H](NC(=O)[C@H](CCCCN)NC(=O)CNC(=O)[C@H](CO)NC(=O)[C@H](C)NC(=O)[C@H](CCCNC(=N)N)NC(=O)CNC1=O)C(=O)N[C@@H]([C@@H](C)CC)C(=O)N[C@@H](CC(N)=O)C(=O)N[C@@H](CO)C(=O)N[C@@H]([C@@H](C)O)C(=O)N3)C(=O)N[C@@H](CC(C)C)C(=O)N1CCC[C@H]1C(=O)N[C@@H](C)C(=O)N2 [Cm39]
inhibition at 0.005 µM (5 nM, CHO cells, pulses to +50 mV, read-out: inhibition of KV1.2 current at equilibrium block): ~5% | inhibition at 0.02 µM (20 nM, CHO cells, pulses to +50 mV, read-out: inhibition of KV1.2 current at equilibrium block): ~22% | inhibition at 0.05 µM (50 nM, CHO cells, pulses to +50 mV, read-out: inhibition of KV1.2 current at equilibrium block): ~43% | inhibition at 0.1 µM (100 nM, CHO cells, pulses to +50 mV, read-out: inhibition of KV1.2 current at equilibrium block): ~62% | inhibition at 0.25 µM (250 nM, CHO cells, pulses to +50 mV, read-out: inhibition of KV1.2 current at equilibrium block): ~78% | inhibition at 0.5 µM (500 nM, CHO cells, pulses to +50 mV, read-out: inhibition of KV1.2 current at equilibrium block): ~87% | reduction of current at equilibrium block (1 µM, CHO cells, n = 3−5 (Figure 3M)): 95% | toxin association and dissociation kinetics (5−500 nM): fast | toxin association and dissociation kinetics (5−500 nM, listed as sCm39): very fast | selectivity for KV1.2 over KV1.3 (KV1.2 over KV1.3): > 15 fold | Hill coefficient (concentration-response of KV1.2 block, CHO cells): 0.96 | kon (slope of linear regression of 1/τon vs concentration, r^2 = 0.97, CHO cells, read-out: second-order association rate constant kon): 215000 M⁻¹ s⁻¹ | reversibility of KV1.2 block (wash-out with toxin-free solution, 5−500 nM): fully reversible | koff (wash-out, single-exponential fit, CHO cells, simple bimolecular interaction assumed, read-out: dissociation rate constant koff (1/τoff)): 0.019 ± 0.0013 s⁻¹
